In ChEMBL document CHEMBL1201862, “PubChem BioAssay data set” (2004):
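Test compounds were applied to cells in 96-well plates for 48 hours at 5 doses. GI50 = concentration required for 50% inhibition of growth.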 The source made the active and inactive calls. Cut-off read from the data, not from the text of the source: active = GI50 up to about 1.1 µM and inactive = higher.

Tests used:
Assay in all cases: DTP human tumour cell line panel, 48 h
COLO 205 = tested on: COLO 205
HT-29 = tested on: HT-29
ACHN = tested on: ACHN
SF-539 = tested on: SF-539
HOP-62 = tested on: HOP-62
SW-620 = tested on: SW-620
MDA-MB-231 = tested on: MDA-MB-231
RPMI-8226 = tested on: RPMI-8226
SN12C = tested on: SN12C
PC-3 = tested on: PC-3
MOLT-4 = tested on: MOLT-4
EKVX = tested on: EKVX
T47D = tested on: T47D
OVCAR-3 = tested on: OVCAR-3
U-251 = tested on: U-251
NCI/ADR-RES = tested on: NCI/ADR-RES
HOP-92 = tested on: HOP-92
MCF7 = tested on: MCF7
SF-268 = tested on: SF-268
KM12 = tested on: KM12
HCT-116 = tested on: HCT-116
OVCAR-5 = tested on: OVCAR-5
SNB-75 = tested on: SNB-75
SK-MEL-2 = tested on: SK-MEL-2
DU-145 = tested on: DU-145
TK-10 = tested on: TK-10
NCI-H460 = tested on: NCI-H460
MDA-MB-435 = tested on: MDA-MB-435
HL-60 = tested on: HL-60
A498 = tested on: A498
UACC-62 = tested on: UACC-62
786-0 = tested on: 786-0
SR = tested on: SR
LOX IMVI = tested on: LOX IMVI
Hs-578T = tested on: Hs-578T
HCT-15 = tested on: HCT-15
SK-MEL-28 = tested on: SK-MEL-28
IGROV-1 = tested on: IGROV-1
CAKI-1 = tested on: CAKI-1
UO-31 = tested on: UO-31
A549 = tested on: A549
BT-549 = tested on: BT-549
SNB-19 = tested on: SNB-19
UACC-257 = tested on: UACC-257
HCC 2998 = tested on: HCC 2998
CCRF-CEM = tested on: CCRF-CEM
RXF 393 = tested on: RXF 393
NCI-H23 = tested on: NCI-H23
MDA-N = tested on: MDA-N
SK-MEL-5 = tested on: SK-MEL-5
OVCAR-4 = tested on: OVCAR-4
SK-OV-3 = tested on: SK-OV-3
M14 = tested on: M14
SF-295 = tested on: SF-295
K562 = tested on: K562
OVCAR-8 = tested on: OVCAR-8
Malme-3M = tested on: Malme-3M
NCI-H226 = tested on: NCI-H226
NCI-H522 = tested on: NCI-H522

Measured: GI50

c1ccc2c(c1)nc1n2CNC1
> 100 µM: HCT-15
inactive: COLO 205 > 100 µM | HT-29 > 100 µM | ACHN > 100 µM | SF-539 > 100 µM | HOP-62 > 100 µM | SW-620 > 100 µM | MDA-MB-231 > 100 µM | RPMI-8226 > 100 µM | SN12C > 100 µM | PC-3 > 100 µM | MOLT-4 > 100 µM | EKVX > 100 µM | T47D > 100 µM | OVCAR-3 > 100 µM | U-251 > 100 µM | NCI/ADR-RES > 100 µM | HOP-92 > 100 µM | MCF7 > 100 µM | SF-268 > 100 µM | KM12 > 100 µM | HCT-116 > 100 µM | OVCAR-5 > 100 µM | SNB-75 > 100 µM | SK-MEL-2 > 100 µM | DU-145 > 100 µM | TK-10 > 100 µM | NCI-H460 54.6 µM | MDA-MB-435 > 100 µM | HL-60 > 100 µM | A498 > 100 µM | UACC-62 > 100 µM | 786-0 > 100 µM | SR > 100 µM | LOX IMVI > 100 µM | Hs-578T > 100 µM | SK-MEL-28 > 100 µM | IGROV-1 > 100 µM | CAKI-1 > 100 µM | UO-31 > 100 µM | A549 > 100 µM | BT-549 > 100 µM | SNB-19 > 100 µM | UACC-257 > 100 µM | HCC 2998 > 100 µM | CCRF-CEM > 100 µM | RXF 393 > 100 µM | NCI-H23 > 100 µM | MDA-N > 100 µM | SK-MEL-5 > 100 µM | OVCAR-4 > 100 µM | SK-OV-3 > 100 µM | M14 > 100 µM | SF-295 > 100 µM | K562 > 100 µM

CC(=O)Nc1ccc(OC2=CCN(C)CC2)cc1
inactive: COLO 205 > 100 µM | HT-29 > 100 µM | ACHN > 100 µM | HOP-62 > 100 µM | SW-620 > 100 µM | MDA-MB-231 > 100 µM | RPMI-8226 > 100 µM | SN12C > 100 µM | PC-3 > 100 µM | MOLT-4 > 100 µM | EKVX > 100 µM | T47D > 100 µM | OVCAR-3 > 100 µM | U-251 > 100 µM | NCI/ADR-RES > 100 µM | MCF7 > 100 µM | SF-268 > 100 µM | KM12 > 100 µM | OVCAR-8 > 100 µM | HCT-116 > 100 µM | OVCAR-5 > 100 µM | SNB-75 > 100 µM | SK-MEL-2 > 100 µM | DU-145 > 100 µM | TK-10 > 100 µM | NCI-H460 > 100 µM | MDA-MB-435 > 100 µM | HL-60 > 100 µM | Malme-3M > 100 µM | UACC-62 > 100 µM | 786-0 > 100 µM | SR > 100 µM | LOX IMVI > 100 µM | Hs-578T > 100 µM | SK-MEL-28 > 100 µM | IGROV-1 > 100 µM | CAKI-1 > 100 µM | UO-31 > 100 µM | A549 > 100 µM | BT-549 > 100 µM | SNB-19 > 100 µM | UACC-257 > 100 µM | HCC 2998 > 100 µM | CCRF-CEM > 100 µM | RXF 393 > 100 µM | NCI-H23 > 100 µM | MDA-N > 100 µM | SK-MEL-5 > 100 µM | OVCAR-4 > 100 µM | SK-OV-3 > 100 µM | NCI-H226 > 100 µM | M14 > 100 µM | SF-295 > 100 µM | K562 > 100 µM
> 100 µM: HCT-15

COc1ccc2c(c1)CCC1=C/C(=N\NC(N)=O)CCC12C (stereo unspecified)
> 10 µM: HCT-15
inactive: COLO 205 > 10 µM | HT-29 > 10 µM | ACHN > 10 µM | NCI-H522 > 10 µM | SF-539 > 10 µM | HOP-62 > 10 µM | SW-620 > 10 µM | MDA-MB-231 > 10 µM | RPMI-8226 > 10 µM | SN12C > 10 µM | PC-3 > 10 µM | MOLT-4 > 10 µM | T47D > 10 µM | OVCAR-3 > 10 µM | U-251 > 10 µM | NCI/ADR-RES > 10 µM | HOP-92 > 10 µM | MCF7 > 10 µM | SF-268 > 10 µM | KM12 > 10 µM | OVCAR-8 > 10 µM | HCT-116 > 10 µM | SNB-75 > 10 µM | DU-145 > 10 µM | TK-10 > 10 µM | MDA-MB-435 5.24 µM | HL-60 9.62 µM | Malme-3M > 10 µM | UACC-62 6.41 µM | 786-0 > 10 µM | SR > 10 µM | LOX IMVI > 10 µM | Hs-578T 7.1 µM | SK-MEL-28 > 10 µM | IGROV-1 > 10 µM | CAKI-1 > 10 µM | A549 > 10 µM | BT-549 > 10 µM | SNB-19 > 10 µM | UACC-257 > 10 µM | HCC 2998 > 10 µM | CCRF-CEM > 10 µM | NCI-H23 > 10 µM | MDA-N > 10 µM | SK-MEL-5 > 10 µM | OVCAR-4 > 10 µM | SK-OV-3 > 10 µM | M14 > 10 µM | SF-295 > 10 µM | K562 > 10 µM
